In publication PMC5259791 (Scientific Reports, 2017):
“Also recorded” adds a separate entry of the source.

What was measured:
[1] = molecular target: T1, PPARγ (Homo sapiens, UniProt P37231); assay: SPR on immobilized PPARγ; type: binding; conditions: SPR, immobilized PPARγ
T1 sequence (P37231 195-477 isoform P37231-2 limits assumed): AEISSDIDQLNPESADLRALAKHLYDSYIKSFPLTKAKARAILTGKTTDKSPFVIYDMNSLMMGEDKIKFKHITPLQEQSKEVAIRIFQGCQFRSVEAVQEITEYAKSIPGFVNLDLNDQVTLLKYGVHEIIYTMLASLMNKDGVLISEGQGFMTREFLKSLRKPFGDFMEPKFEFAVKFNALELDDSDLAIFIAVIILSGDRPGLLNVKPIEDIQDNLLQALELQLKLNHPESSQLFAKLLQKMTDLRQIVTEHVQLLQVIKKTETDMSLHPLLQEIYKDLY
Procedure: ; SPR analysis was also performed using the immobilized PPARγ LBD to evaluate if this protein portion was involved in the interaction with 1; […]. Conversely, no affinity of the diterpene towards Hsp60 was observed (Fig. 2c).
To assess the potential of 1 to act as a PPARγ modulator, we investigated the structural and functional aspects of its interaction with this nuclear receptor. To define the structural features required by 1 for an efficient interaction with PPARγ, as a first step, we performed SPR analyses using some diterpenes displaying structural relationship with 1 (compounds 2–9, Fig. 1). […]. SPR analyses were carried out on a BIACORE 3000 instrument (GE-Healthcare). PPARα, PPARγ, PPARδ and HSP60 surfaces were prepared on research−grade CM5 sensor chips (GE Healthcare). Proteins (100 μg/ml in 10 mM CH3COONa, pH 5.0) were immobilized using a standard amine−coupling protocol, to obtain densities of 3–5 kRU. Testing compounds were dissolved in 100% DMSO to obtain 4 mM solutions, and then diluted in PBS containing variable amounts of DMSO, achieving a final DMSO concentration of 0.1%. […]. SPR experiments and data elaboration were carried out as reported elsewhere.

[2] = tested on: HT-29 cells; assay: HT-29 cell growth (cell counting); conditions: GW9662 10 μM 6 h, then compound 10 μM for 24 and 48 h

Compound | KD [1] | also measured
C=C1C2CCC3C(CCC4[C@@H](C(=O)OC)C[C@@H](O)C[C@]43C)(C2)[C@H]1O (some centres unmarked) [Compound 2] | – | Kd [1]: 1.86 ± 0.078 µM; koff [1]: 0.051 s⁻¹
C=C1C2CCC3C(CCC4[C@@H](C(=O)OC)C[C@@H](O)C[C@]43C)(C2)[C@@H]1O (some centres unmarked) [Compound 3] | – | Kd [1]: 4.59 ± 0.206 µM; koff [1]: 0.096 s⁻¹
C=C1C2CCC3C(CCC4[C@@H](C(=O)O)C[C@@H](O)C[C@]43C)(C2)[C@H]1O (some centres unmarked) [Compound 4] | No binding | –
C=C1C2CCC3C(CCC4[C@@H](CO)C[C@@H](O)C[C@]43C)(C2)[C@H]1O (some centres unmarked) [Compound 5] | No binding | –
C=C1C2CCC3C(CCC4[C@@H](C(=O)OC)C[C@@H](OC(C)=O)C[C@]43C)(C2)[C@H]1OC(C)=O (some centres unmarked) [Compound 6] | No binding | –
CC1CC23CC1CCC2[C@]1(C)C[C@H](C)C[C@](C)(C(=O)O)C1CC3=O (some centres unmarked) [Compound 7] | No binding | –
C=C1C(=O)C23C(O)C1CCC2C12COC3(O)C(O)C1C(C)(C)CCC2O (centres unmarked) [Compound 8] | not detected; also recorded: No binding | –
C=C1C(=O)C23CCC4[C@@]5(C)C[C@@H](O)C[C@@]4(OC5=O)[C@@]2(C)CC[C@]1(O)C3 (some centres unmarked) [Compound 9] | not detected; also recorded: No binding | –
CN(CCOc1ccc(CC2SC(=O)NC2=O)cc1)c1ccccn1 (centres unmarked) [Rosiglitazone, reference compound] | – | cell counts after GW9662 pre-treatment versus compound alone [2]: less pronounced effect
